In article PMC8215293 (The Journal of Biological Chemistry, 2021):
Where “and” joins values, the source holds several entries; their conditions need not be identical. Identical values can stand only once.

How the values were obtained:
CYP11B2 = target: T1, CYP11B2 (Homo sapiens, UniProt P19099); type: binding; settings: isolated CYP11B2 0.2 μM, 5 cm path length
T1 sequence (P19099 30-503 limits assumed): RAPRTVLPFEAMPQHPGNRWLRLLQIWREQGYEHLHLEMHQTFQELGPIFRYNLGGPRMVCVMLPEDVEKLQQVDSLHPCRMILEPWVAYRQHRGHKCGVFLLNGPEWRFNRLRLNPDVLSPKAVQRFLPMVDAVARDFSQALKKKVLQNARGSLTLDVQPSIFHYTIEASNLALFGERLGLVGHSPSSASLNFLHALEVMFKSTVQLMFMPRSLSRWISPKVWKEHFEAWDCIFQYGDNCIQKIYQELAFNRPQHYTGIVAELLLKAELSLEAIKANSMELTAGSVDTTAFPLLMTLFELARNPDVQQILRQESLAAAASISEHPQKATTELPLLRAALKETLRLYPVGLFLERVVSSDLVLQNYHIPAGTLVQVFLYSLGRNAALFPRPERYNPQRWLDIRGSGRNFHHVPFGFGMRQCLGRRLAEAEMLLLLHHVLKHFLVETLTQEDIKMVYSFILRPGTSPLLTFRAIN

[1] = target: T2, adrenodoxin–CYP11B2 fusion protein (Homo sapiens, UniProt P10109+P19099); type: binding; settings: Adx-CYP11B2 fusion 0.2 μM, 5 cm path length
T2 sequence (P10109+P19099 with tags, fused parts or gaps): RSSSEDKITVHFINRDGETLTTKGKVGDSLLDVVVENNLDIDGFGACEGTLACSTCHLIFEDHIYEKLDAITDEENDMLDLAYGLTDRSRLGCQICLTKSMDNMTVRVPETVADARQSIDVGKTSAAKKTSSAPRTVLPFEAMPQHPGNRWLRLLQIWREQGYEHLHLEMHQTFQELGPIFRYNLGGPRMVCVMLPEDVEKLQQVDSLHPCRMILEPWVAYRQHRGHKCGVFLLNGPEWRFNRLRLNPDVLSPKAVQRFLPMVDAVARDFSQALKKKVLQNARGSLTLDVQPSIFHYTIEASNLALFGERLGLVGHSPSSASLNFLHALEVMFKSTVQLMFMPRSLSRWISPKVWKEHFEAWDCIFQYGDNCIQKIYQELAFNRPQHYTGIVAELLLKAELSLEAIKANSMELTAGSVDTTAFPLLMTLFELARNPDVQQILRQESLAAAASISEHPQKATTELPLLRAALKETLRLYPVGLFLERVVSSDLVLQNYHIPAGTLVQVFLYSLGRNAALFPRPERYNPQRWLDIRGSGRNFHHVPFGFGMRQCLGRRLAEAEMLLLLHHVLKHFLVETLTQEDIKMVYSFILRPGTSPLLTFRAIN

[2] = tested on: adrenodoxin–CYP11B2 fusion protein; type: binding, human; settings: fusion versus isolated CYP11B2

Amax (CYP11B2): 0.019
Amax [1]: 0.032
increase of Amax (enzyme population binding inhibitor at saturation) [2]: ~1.7 fold and 1.7 fold
increase of Kd [2]: 1.8 fold
SMILES: N#Cc1ccc([C@H]2CCc3cncn32)c(F)c1 [LCI699, osilodrostat]
